According to ChEMBL document CHEMBL5260825, “Chemical Constituents of Bryophytes: Structures and Biological Activity” (J Nat Prod, 2018):
Values after ≈ are worked out from the molar mass of the structure shown. Values joined by “and” are separate entries in the source; they are usually repeats but may differ in a detail not shown here. Equal entries are not always repeated.

Columns and labels:
[1] = test system: Candida albicans; assay: Antifungal activity against Candida albicans assessed as inhibition of fungal growth by MTT assay; format: functional
[2] = molecular target: T1, Polyunsaturated fatty acid 5-lipoxygenase (Homo sapiens) (UniProt P09917); assay: Inhibition of ALOX5 (unknown origin) at 0.000001 M relative to control; settings: dose 1 µM
T1 sequence (whole entry): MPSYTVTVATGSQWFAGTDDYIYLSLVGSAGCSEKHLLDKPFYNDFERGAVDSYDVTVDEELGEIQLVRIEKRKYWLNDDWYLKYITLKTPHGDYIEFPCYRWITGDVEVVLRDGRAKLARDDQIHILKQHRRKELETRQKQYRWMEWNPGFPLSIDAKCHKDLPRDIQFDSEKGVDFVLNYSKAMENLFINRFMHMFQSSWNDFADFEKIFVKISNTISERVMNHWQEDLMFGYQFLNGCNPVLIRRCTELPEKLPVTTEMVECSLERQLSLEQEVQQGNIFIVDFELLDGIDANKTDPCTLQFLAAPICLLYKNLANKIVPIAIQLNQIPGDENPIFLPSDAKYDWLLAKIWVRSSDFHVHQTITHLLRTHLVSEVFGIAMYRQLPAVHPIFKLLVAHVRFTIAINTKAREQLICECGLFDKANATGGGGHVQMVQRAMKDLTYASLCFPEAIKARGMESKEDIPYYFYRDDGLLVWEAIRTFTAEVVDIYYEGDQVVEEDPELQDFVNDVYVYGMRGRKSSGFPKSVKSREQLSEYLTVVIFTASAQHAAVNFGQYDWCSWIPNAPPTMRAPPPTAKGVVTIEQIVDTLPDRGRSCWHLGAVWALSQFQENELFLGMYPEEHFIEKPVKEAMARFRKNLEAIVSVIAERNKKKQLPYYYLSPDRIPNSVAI

[3] = molecular target: Cyclooxygenase (Homo sapiens, UniProt P35354+P23219); assay: Inhibition of COX (unknown origin); format: protein assay
[4] = test system: Panel NCI-60 (60 carcinoma cell lines); assay: Antiproliferative activity against human Panel NCI-60 (60 carcinoma cell lines) assessed as cell growth inhibition; format: functional
[5] = test system: RAW264.7; assay: Inhibition of LPS-induced NO production in mouse RAW264.7 cells; format: functional, cell-based
[6] = test system: Peritoneal macrophage cell; assay: Inhibition of superoxide anion radical release in guinea pig peritoneal macrophages; format: functional, cell-based; settings: Cavia porcellus
[7] = molecular target: Procathepsin L (Homo sapiens) (UniProt P07711); assay: Inhibition of Cathepsin L (unknown origin) at 0.00001 M relative to control; settings: dose 10 µM
Chain of Procathepsin L (Homo sapiens) (P07711 114-333 limits assumed): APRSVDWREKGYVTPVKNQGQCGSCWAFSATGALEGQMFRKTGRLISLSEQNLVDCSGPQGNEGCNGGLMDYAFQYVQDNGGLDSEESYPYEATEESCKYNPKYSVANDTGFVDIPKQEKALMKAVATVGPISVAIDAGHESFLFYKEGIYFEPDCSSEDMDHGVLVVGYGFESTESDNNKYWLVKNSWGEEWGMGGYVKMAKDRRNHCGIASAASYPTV

[8] = molecular target: Cathepsin B (Homo sapiens) (UniProt P07858); assay: Inhibition of Cathepsin B (unknown origin) at 0.00001 M relative to control; settings: dose 10 µM
[9] = test system: Trypanosoma brucei brucei; assay: […] activity against Trypanosoma brucei brucei GUTat 3.1 assessed as inhibition of parasite growth measured after 72 hrs by alamar blue assay; format: functional, organism-based; settings: GUTat 3.1, time 72 hrs, read-out: ED50 (the source's name)
[10] = molecular target: DNA polymerase beta (Homo sapiens, UniProt P06746); assay: Inhibition of DNA polymerase beta (unknown origin)
[11] = test system: KB; assay: Antiproliferative activity against human KB cells assessed as cell growth inhibition; format: functional, cell-based
[12] = test system: HL-60; assay: Antiproliferative activity against human HL-60 cells assessed as cell growth inhibition; format: functional, cell-based
[13] = test system: U-251; assay: Antiproliferative activity against human U-251MG cells assessed as cell growth inhibition; format: functional; settings: read-out: ED50 (the source's name)
[14] = test system: RPMI-7951; assay: Antiproliferative activity against human RPMI-7951 cells assessed as cell growth inhibition; format: functional; settings: read-out: ED50 (the source's name)
[15] = test system: Trichostrongylus colubriformis; assay: Anthelmintic activity against third stage larvae of Trichostrongylus colubriformis by microscope based analysis; format: functional, organism-based
[16] = Toxicity in brine shrimp assessed as lethality; settings: artemia salina
[17] = test system: Trichophyton mentagrophytes; assay: Antifungal activity against Trichophyton mentagrophytes assessed as inhibition of microbial growth; format: functional
[18] = test system: RAW264.7; assay: Inhibition of LPS-induced NO production in mouse RAW264.7 cells incubated for 24 hrs by Griess reagent based assay; format: functional, cell-based; settings: RAW264.7, 24 h
[19] = test system: Candida albicans; assay: Antifungal activity against Candida albicans assessed as inhibition of fungal growth by MTT method; format: functional
[20] = test system: P388; assay: Antiproliferative activity against mouse P388 cells assessed as cell growth inhibition; format: functional, cell-based
[21] = test system: Pyricularia oryzae; assay: Antifungal activity against Pyricularia oryzae assessed as inhibition of microbial growth; format: functional, organism-based
[22] = test system: Phytophthora infestans; assay: Antifungal activity against Phytophthora infestans assessed as inhibition of microbial growth by microtiter plate based analysis; format: functional, organism-based

Question: Which MID [1] does the source give for `Oc1ccc2cc1Oc1ccc(cc1)CCc1c(cc(O)c(O)c1O)-c1ccc(cc1O)CC2` here?
Answer: The MID was 4 µg/mL.

Question: For `CC1=CCc2c(cc(CCc3ccccc3)c(C(=O)O)c2O)OC1`, which inhibition [2] is on record?
Answer: Its inhibition is 4%.

Question: And the IC50 [3]?
Answer: The IC50 was 39.7 µM.

Question: With `C=C1C(=O)C2=C[C@H]1C[C@H](O)C(=O)[C@]1(C)CCCC(C)(C)[C@H]1C[C@H]2O` as the compound, how does the GI50 [4] read?
Answer: The GI50 was 1.5 µM.

Question: With `C[C@@H]1CC[C@H]2C(=O)c3ccoc3C[C@@]12C` as the compound, how does the IC50 [5] read?
Answer: The IC50 was 1.7 µM.

Question: What about the IC50 [6] of the same compound?
Answer: The IC50 was 12.5 µg/mL (≈ 61.2 µM).

Question: What does the source list for `C=C1C(=O)O[C@@H]2[C@H]3C(C)=C[C@H]4OC(=O)C(=CC[C@@H]12)[C@@H]34`?
Answer: inhibition [7]: 13.4%; inhibition [8]: 24.7%

Question: With `NCCCC(N)(C(=O)O)C(F)F` (configuration not stated) [EFLORNITHINE] as the compound, how does the EC50 [9] read?
Answer: The EC50 was 2.27 µg/mL (≈ 12.5 µM).

Question: Which MID [1] does the source give for `Clc1ccc(COC(Cn2ccnc2)c2ccc(Cl)cc2Cl)c(Cl)c1` (configuration not stated) [MICONAZOLE] here?
Answer: Its MID is 0.01 µg.

Question: For `Oc1cccc(CCc2ccc(Oc3cc(CCc4cccc(O)c4)cc(O)c3O)cc2)c1` [PERROTETTIN F], which IC50 [10] is on record?
Answer: Its IC50 is 14.4 µM.

Question: With `COc1ccc(C[C@@H]2OC(=O)c3c(OC)cc(OC)cc32)cc1` as the compound, how does the IC50 [11] read?
Answer: Its IC50 is 0.96 µM.

Question: And the IC50 [12]?
Answer: The IC50 was 0.92 µM.

Question: What does the source list for `O=C(/C=C\c1ccccc1)c1cc(O)cc2c1CC(c1ccccc1)O2` (configuration not stated) [PALLIDISETIN B]?
Answer: EC50 [13]: 2 µg/mL (≈ 5.84 µM); EC50 [14]: 1 µg/mL (≈ 2.92 µM)

Question: With `Oc1ccc2c(c1)CCc1ccc(cc1)Oc1cc(cc(-c3cc4cc(c3O)Oc3ccc(cc3)CCc3cc(O)ccc3-c3ccc(cc3O)CC4)c1O)CCc1ccc-2c(O)c1` [PUSILATIN B] as the compound, how does the IC50 [10] read?
Answer: Its IC50 is 13 µM.

Question: With `COc1cc(/C=C\c2ccccc2)ccc1O` as the compound, how does the IC50 [15] read?
Answer: The IC50 was 70 µg/mL (≈ 309 µM).

Question: Which LC50 [16] does the source give for `COc1ccc(CCc2c(Cl)ccc(O)c2Cl)cc1` here?
Answer: Its LC50 is 0.42 ppm.

Question: With `Oc1ccc(CCc2c(Cl)cc(Cl)c(O)c2Cl)cc1Cl` as the compound, how does the LC50 [16] read?
Answer: The LC50 was 0.42 ppm.

Question: With `COC1Cc2cccc(c2)Oc2c(O)cccc2CCc2ccc(cc2)Oc2cc1cc(O)c2O` (configuration not stated) [MARCHANTIN E] as the compound, how does the inhibition [2] read?
Answer: Its inhibition is 4%.

Question: And the IC50 [11]?
Answer: The IC50 was 7.6 µM.

Question: What about the MID [1] of the same compound?
Answer: Its MID is 2.5 µg/mL.

Question: And the IC50 [3]?
Answer: Its IC50 is 58 µM.

Question: For `Oc1ccc2cc1Oc1ccc(cc1)CCc1ccc(c(O)c1O)Oc1cccc(c1)CC2`, which MID [1] is on record?
Answer: Its MID is 0.2 µg/mL.

Question: And the MIC [17]?
Answer: Its MIC is 0.5 µg/mL.

Question: With `Cc1ccc(O)c([C@@]2(C)CCCC2(C)C)c1` as the compound, how does the IC50 [18] read?
Answer: Its IC50 is 4.1 µM.

Question: What does the source list for `COC(=O)[C@@]12Cc3occc3C(=O)[C@]1(C)CC[C@H]2C` [NORPINGUISONE METHYL ESTER]?
Answer: IC50 [5]: 45.5 µM; IC50 [6]: 35 µg/mL (≈ 133 µM)

Question: What does the source list for `COc1cc(CCc2cccc(Oc3c(O)cccc3CCc3ccc(O)cc3)c2)cc(O)c1O`?
Answer: IC50 [3]: 45.2 µM; IC50 [10]: 14.4 µM

Question: For `COC(=O)c1c(C)cc(OC(=O)c2c(C)cc(O)c(C=O)c2O)c(C)c1O` [ATRANORIN], which MIC [19] is on record?
Answer: The MIC was 2 µg/mL (≈ 5.34 µM).

Question: For `Oc1ccc2cc1Oc1ccc(cc1)CCc1cccc(c1)Oc1c(O)cccc1CC2`, which inhibition [7] is on record?
Answer: The inhibition was 95%.

Question: And the inhibition [8]?
Answer: The inhibition was 93%.

Question: Which IC50 [11] does the source give for `C=C1C(=O)O[C@H]2C[C@@]3(C)CCC=C(C)[C@@H]3C[C@@H]12` here?
Answer: The IC50 was 3.3 µg/mL.

Question: What about the IC50 [12] of the same compound?
Answer: Its IC50 is 1.4 µg/mL.

Question: For `CC(C)=CCC/C(C)=C/Cc1c(O)cc(O)cc1CCc1ccccc1`, which IC50 [5] is on record?
Answer: The IC50 was 4.5 µM.

Question: With `C=C1C(=O)C2=C[C@H]1CCC(=O)[C@]1(C)CCCC(C)(C)[C@H]1C[C@H]2O` as the compound, how does the GI50 [4] read?
Answer: Its GI50 is 1.2 µM.

Question: And the GI50 [20]?
Answer: The GI50 was 0.1 µg/mL and 300 nM.

Question: And the IC50 [20]?
Answer: Its IC50 is 0.06 µg/mL (≈ 0.19 µM).

Question: With `Cc1ccc2c(c1O)[C@@H](C(C)C)CC[C@H]2C` as the compound, how does the IC50 [21] read?
Answer: The IC50 was 1.7 µg/mL.

Question: Which IC50 [22] does the source give for `C=C1CC[C@]2(C)[C@@H](O)[C@H]1[C@]1(C)CCC[C@@]12C` here?
Answer: Its IC50 is 0.1 µg/mL.

Question: With `COc1cc(OC)c2c3c1-c1c(O)cccc1[C@@H]1Oc4ccccc4[C@@H](C[C@@H]2O)[C@@H]31` as the compound, how does the EC50 [13] read?
Answer: Its EC50 is 0.8 µg/mL (≈ 1.99 µM).
